Assay results taken from patent US6423734B1, “Method of preventing cancer” (The Procter & Gamble Company, priority 1999, dated 2002).
Several values for one entry are separate records, joined by “and”; a condition that tells them apart may be missing. Identical values can stand only once.

Test system: C57BL/6J-Apc^Min mice
Assay: Chemopreventive activity in Apc^Min mouse model (intestinal tumor number)
Conditions: for Tumor # ±S.D.: avg. age 118 days
Procedure: In both studies,—Carbendazim was administered orally at 1000 mg/kg, 1500 mg/kg, and 2000 mg/kg on a twice weekly to end schedule. In order to provide a positive control for the Apc^Min mouse study, Sulindac was administered ad libitum in the drinking water at 85 mg/l. Gemcitabine at 80 mg/kg, i.p., served as the positive control in the MiaPaCa study.
Female C57BL/6J-Apc^Min mice were obtained from The Jackson Laboratory at 4-5 weeks of age. The following day (Day 1), drug treatment begins. The Min (Multiple intestinal neoplasia) mouse is a strain with a mutated murine Apc (adenomatous polyposis coli) gene, which leads to the development of multiple intestinal polyps. This development is time and diet dependent, with 100% of the mice which ingest a high fat diet forming adenomas beginning around 45 days of age. These mice develop in excess of 30 adenomas throughout the intestinal tract during their 120 day life span and are therefore an ideal model for the evaluation of potential chemopreventive agents.
The mean survival times of all groups were calculated, and results are expressed as mean survival of treated mice/mean survival of control mice (T/C)×100%. A T/C value of 150 means that the mice in the treated group lived 50% longer than those of the control group; this is sometimes referred to as the increase in life span, or ILS value.
Statistics were performned on the data using primarily the log rank p-value test.

In the case of `COC(=O)Nc1nc2ccccc2[nH]1` [Carbendazim, 2-methoxycarbonylamino-benzimidazole], the “Tumor # ±S.D.” value (1000 mg/kg p.o. 2× weekly to end, control 31.70 ± 18.49, 1000 mg/kg) is reported as 24.7 and 24.71 ± 7.8, the “# of non-specific Death” value (1000 mg/kg p.o. 2× weekly to end, n 10) is reported as 3 and the “# of non-specific Death” value (1500 mg/kg p.o. 2× weekly to end, n 10) is reported as 2. For the same molecule, the “Tumor # ±S.D.” value (2000 mg/kg p.o. 2× weekly to end, control 31.70 ± 18.49, 2000 mg/kg) was 19.1 and 19.17 ± 7.36 and the “# of non-specific Death” value (2000 mg/kg p.o. 2× weekly to end, n 9) was 3.

With `CC1=C(CC(=O)O)c2cc(F)ccc2/C1=C\c1ccc([S+](C)[O-])cc1` (stereo not drawn) [Sulindac, reference compound] the “# of non-specific Death” value (0.85 mg/kg p.o. ad libitum/H20, n 9) was 0.
